10 molecules from patent US20230014445A1, “ALLOSTERIC CHROMENONE INHIBITORS OF PHOSPHOINOSITIDE 3-KINASE (PI3K) FOR THE TREATMENT OF DISEASE” (Petra Pharma Corporation, priority 2021, published 2023) can be followed below.

For experiment [1], the target named is T1, human full length PIK3KA H1047R mutant (p110α/p85α complex) (Homo sapiens, UniProt P42336, H1047R).
T1 construct: Recombinant, catalytically active human full length PIK3KA Wild-type and H1047R mutant were purchased; 6xHis (N); purchased EMD Millipore Sigma 14-792M
Put plainly: PI3K-Alpha Kinase (PIK3CA) biochemical activity, H1047R mutant (ADP-Glo). The following applies: 20 uM ATP. In outline:
(§1)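 ADP formation, measured by ADP-Glo luminescence after reaction to about 10% ATP conversion at 27° C., gives 10-point 4-parameter IC50 curves normalized to no-enzyme and DMSO controls. Lipid substrate was PIP2diC8 or Soy PI at 50 uM, with 20 uM ATP. WT or H1047R p110α/p85α complex (1-5 nM) was preincubated 1 h with compound.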

Experiment [2] concerns the target T2, human full length PIK3KA Wild-type (p110α/p85α complex) (Homo sapiens, UniProt P42336).
T2 construct: Recombinant, catalytically active human full length PIK3KA Wild-type and H1047R mutant were purchased; 6xHis (N); purchased EMD Millipore Sigma 14-602M
The experiment is described as follows: PI3K-Alpha Kinase (PIK3CA) biochemical activity, wild-type (ADP-Glo). As to conditions: 20 uM ATP. The method in brief:
as §1

T1 sequence (P42336 whole entry H1047R): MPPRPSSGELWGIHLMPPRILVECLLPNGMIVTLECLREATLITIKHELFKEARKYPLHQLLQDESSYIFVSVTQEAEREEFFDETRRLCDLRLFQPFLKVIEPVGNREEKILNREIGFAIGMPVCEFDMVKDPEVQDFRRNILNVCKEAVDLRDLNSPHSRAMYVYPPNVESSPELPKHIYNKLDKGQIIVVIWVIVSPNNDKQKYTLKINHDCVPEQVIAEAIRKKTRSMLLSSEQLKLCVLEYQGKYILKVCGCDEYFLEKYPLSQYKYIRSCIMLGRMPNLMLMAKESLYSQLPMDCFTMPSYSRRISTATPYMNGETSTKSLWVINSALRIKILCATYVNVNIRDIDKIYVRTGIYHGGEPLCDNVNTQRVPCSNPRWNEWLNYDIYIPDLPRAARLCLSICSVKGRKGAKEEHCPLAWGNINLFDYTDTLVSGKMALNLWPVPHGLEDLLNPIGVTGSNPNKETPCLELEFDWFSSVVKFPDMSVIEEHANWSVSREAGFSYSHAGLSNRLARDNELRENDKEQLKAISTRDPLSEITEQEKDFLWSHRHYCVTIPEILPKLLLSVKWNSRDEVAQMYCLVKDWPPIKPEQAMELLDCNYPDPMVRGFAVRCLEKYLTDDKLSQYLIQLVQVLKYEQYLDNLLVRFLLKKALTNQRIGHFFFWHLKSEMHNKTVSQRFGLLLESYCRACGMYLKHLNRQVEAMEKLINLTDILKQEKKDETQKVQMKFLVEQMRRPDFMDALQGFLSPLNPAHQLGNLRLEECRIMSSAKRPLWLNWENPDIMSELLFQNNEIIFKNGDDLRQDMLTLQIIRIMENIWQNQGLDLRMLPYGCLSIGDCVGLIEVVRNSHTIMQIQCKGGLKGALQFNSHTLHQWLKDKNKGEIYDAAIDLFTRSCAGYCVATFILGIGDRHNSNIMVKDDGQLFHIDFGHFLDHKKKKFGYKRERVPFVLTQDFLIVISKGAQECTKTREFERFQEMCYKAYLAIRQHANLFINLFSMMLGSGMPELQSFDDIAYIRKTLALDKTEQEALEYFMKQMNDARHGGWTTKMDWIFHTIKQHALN
T1 sequence (P27986 whole entry partner): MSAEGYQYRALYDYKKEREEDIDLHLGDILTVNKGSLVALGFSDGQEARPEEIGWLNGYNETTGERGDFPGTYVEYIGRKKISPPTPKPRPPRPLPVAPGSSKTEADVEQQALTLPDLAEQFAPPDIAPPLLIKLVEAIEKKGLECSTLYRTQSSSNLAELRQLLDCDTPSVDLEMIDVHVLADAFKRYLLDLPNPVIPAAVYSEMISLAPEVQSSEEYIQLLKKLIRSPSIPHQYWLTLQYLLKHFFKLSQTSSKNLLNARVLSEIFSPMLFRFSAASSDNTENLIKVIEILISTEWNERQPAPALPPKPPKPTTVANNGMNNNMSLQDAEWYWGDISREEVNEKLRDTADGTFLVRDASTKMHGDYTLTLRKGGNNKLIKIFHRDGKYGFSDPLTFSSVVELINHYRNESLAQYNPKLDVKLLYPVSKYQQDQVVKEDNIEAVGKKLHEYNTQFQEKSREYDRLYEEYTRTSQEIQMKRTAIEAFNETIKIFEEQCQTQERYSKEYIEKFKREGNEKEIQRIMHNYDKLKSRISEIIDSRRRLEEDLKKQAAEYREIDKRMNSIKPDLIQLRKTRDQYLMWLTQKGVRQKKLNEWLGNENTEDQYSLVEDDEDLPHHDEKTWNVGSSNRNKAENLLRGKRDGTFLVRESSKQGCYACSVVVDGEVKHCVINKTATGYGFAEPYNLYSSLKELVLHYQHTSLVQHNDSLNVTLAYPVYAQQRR

As usually defined, the IC50 is the concentration at which inhibition is half-maximal. Low readings indicate inhibition by little substance, high ones a need for much substance. Take `COc1ccc(-n2cc(-c3cc(=O)c4cc(C)cc(C(C)Nc5ccccc5C(=O)O)c4o3)cn2)cc1F` (single isomer, unassigned) [Example 92, 2-[1-[2-[1-(3-Fluoro-4-methoxy-phenyl)pyrazol-4-yl]-6-methyl-4-oxo-chromen-8-yl]ethylamino]benzoic acid, Isomer 2,2,2,2-trifluoroacetic acid]: the IC50 in experiment [1] (Soy PI lipid substrate) was less than 0.5 µM; in experiment [2] (Soy PI lipid substrate) it was 5 to 10 µM.

For the molecule `COc1cccc(-n2cc(-c3oc4c(C(C)Nc5ccccc5C(=O)O)cc(C)cc4c(=O)c3C)cn2)c1` (single isomer, unassigned) [Example 66, 2-[1-2-[1-(3-Methoxyphenyl)pyrazol-4-yl]-3,6-dimethyl-4-oxo-chromen-8-yl]ethylamino]benzoic acid, Isomer 1,2,2,2-trifluoroacetic acid], the IC50 in experiment [1] (Soy PI lipid substrate) is less than 0.5 µM; in experiment [2] (Soy PI lipid substrate), 0.5 to 1 µM.

Regarding `Cc1cc(C(C)Nc2ccccc2C(=O)O)c2oc(-c3cnccn3)cc(=O)c2c1` (single isomer, unassigned; isomer 1) [Example 15, 2-[1-(6-Methyl-4-oxo-2-pyrazin-2-yl-chromen-8-yl)ethylamino]benzoic acid, Isomer 1], the IC50 in experiment [1] (PIP2diC8 lipid substrate) is less than 0.5 µM; in experiment [2] (PIP2diC8 lipid substrate), 1 to 5 µM.

In the case of `Cc1cc(C(C)Nc2ccccc2C(=O)O)c2oc(-c3cnn(-c4ccc(S(C)(=O)=O)cc4)c3)cc(=O)c2c1` (single isomer, unassigned) [Example 88, 2-[1-[6-Methyl-2-[1-(4-methylsulfonylphenyl)pyrazol-4-yl]-4-oxo-chromen-8-yl]ethylamino]benzoic acid, Isomer 2,2,2,2-trifluoroacetic acid], the IC50 is less than 0.5 µM in experiment [1] (Soy PI lipid substrate) and 1 to 5 µM in experiment [2] (Soy PI lipid substrate).

As for `Cc1cc(C(C)Nc2ccccc2C(=O)O)c2oc(-c3cn[nH]c3)cc(=O)c2c1` (single isomer, unassigned) [Example 51, 2-[1-[6-Methyl-4-oxo-2-(1H-pyrazol-4-yl)chromen-8-yl]ethylamino]benzoic acid, Isomer 2,2,2,2-trifluoroacetic acid], the IC50 in experiment [1] (Soy PI lipid substrate) was less than 0.5 µM; in experiment [2] (Soy PI lipid substrate) it was 1 to 5 µM.

Take `Cc1cc(C(C)Nc2ccccc2C(=O)O)c2oc(-c3cnc(C)nc3)cc(=O)c2c1` (centres unmarked) [Example 13, 2-[1-[6-Methyl-2-(2-methylpyrimidin-5-yl)-4-oxo-chromen-8-yl]ethylamino]benzoic acid 2,2,2-trifluoroacetic acid]: the results for the IC50 in experiment [1] (Soy PI lipid substrate) and in experiment [2] (Soy PI lipid substrate) were 0.5 to 1 µM and greater than 10 µM, respectively.

With `Cc1cc(C(C)Nc2ccccc2C(=O)O)c2oc(-c3cnn(-c4ccc(OC(F)(F)F)cc4)c3)cc(=O)c2c1` (single isomer, unassigned) [Example 93, 2-[1-[6-Methyl-4-oxo-2-[1-[4-(trifluoromethoxy)phenyl]pyrazol-4-yl]chromen-8-yl]ethylamino]benzoic acid, Isomer 2,2,2,2-trifluoroacetic acid], the IC50 in experiment [1] (Soy PI lipid substrate) was 0.5 to 1 µM; in experiment [2] (Soy PI lipid substrate), greater than 10 µM.

In the case of `Cc1cc(C(C)Nc2ccccc2C(=O)O)c2oc(-c3cnn(-c4ccc(C#N)cc4F)c3)cc(=O)c2c1` (single isomer, unassigned) [Example 104, 2-[1-[2-[1-(4-Cyano-2-fluoro-phenyl)pyrazol-4-yl]-6-methyl-4-oxo-chromen-8-yl]ethylamino]benzoic acid, Isomer 2,2,2,2-trifluoroacetic acid], the IC50 in experiment [1] (Soy PI lipid substrate) is 0.5 to 1 µM; in experiment [2] (Soy PI lipid substrate), greater than 10 µM.

`Cc1cc(C(C)Nc2ccc(Cl)nc2C(=O)O)c2oc(-c3ccccn3)cc(=O)c2c1` (single isomer, unassigned; isomer 1) [Example 27, 6-Chloro-3-[1-[6-methyl-4-oxo-2-(2-pyridyl)chromen-8-yl]ethylamino]pyridine-2-carboxylic acid, Isomer 1]: the IC50 in experiment [1] (Soy PI lipid substrate) is less than 0.5 µM; in experiment [2] (Soy PI lipid substrate), 1 to 5 µM.

Take `COc1ncc(-c2cc(=O)c3cc(C)cc(C(C)Nc4ccccc4C(=O)O)c3o2)cn1` (centres unmarked) [Example 2, 2-[1-[2-(2-Methoxypyrimidin-5-yl)-6-methyl-4-oxo-chromen-8-yl]ethylamino]benzoic acid 2,2,2-trifluoroacetic acid]: the IC50 in experiment [1] (Soy PI lipid substrate) was less than 0.5 µM; in experiment [2] (Soy PI lipid substrate), 5 to 10 µM.
